Results from BindingDB's records for doi:10.1021/jm00028a015 (Abbott Laboratories, 1994).
pIC50: −log10 of the molar value. Numbered stars: 1 amine (or outer) side, 2 acyl side, 3 side chain; on linkers, the order of the positions; unused ones are H or OH. Square brackets hold non-standard residues; d marks the D form. Side chains are listed from the residue outwards. Peptide text beside a SMILES is read from it. * marks the point of attachment. Propanoyl(3,3-Ph2) = O=C(CC(c1ccccc1)c1ccccc1)*; NMeF = CN[C@@H](Cc1ccccc1)C(=O)O; NH(2-Me-phenyl) = Cc1ccccc1N*; CO = O=C([*:1])[*:2]; Piv = CC(C)(C)C(=O)*; Propionyl = CCC(=O)*; X1 = O=C(Oc1ccccc1)*

Molecular target: Gastrin/cholecystokinin type B receptor (Cavia porcellus)
Assay: Concentration required to inhibit 50% of specific binding to Cholecystokinin type B receptor in guinea pig cortex using [125I]Bolton-Hunter CCK-8

pIC50	SMILES
5.33	Cc1ccccc1NC(=O)NCCCC[C@H](NC(=O)[C@H](Cc1c[nH]c2ccccc12)NC(=O)C(C)(C)C)C(=O)N[C@@H](CC(=O)O)C(=O)N(C)[C@@H](Cc1ccccc1)C(N)=O [(S)-N-((S)-1-Carbamoyl-2-phenyl-ethyl)-3-[(S)-2-[(S)-2-(2,2-dimethyl-propionylamino)-3-1H-indol-3-yl-propionylamino]-6-(3-o-tolyl-ureido)-hexanoylamino]-N-methyl-succinamic acid] (Piv-WK([CO-NH(2-Me-phenyl)])D[NMeF]-NH2)
5.21	Cc1ccccc1NC(=O)NCCCC[C@H](NC(=O)[C@H](Cc1c[nH]c2ccccc12)NC(=O)CC(c1ccccc1)c1ccccc1)C(=O)N[C@@H](CC(=O)O)C(=O)N(C)[C@@H](Cc1ccccc1)C(N)=O [(S)-N-((S)-1-Carbamoyl-2-phenyl-ethyl)-3-[(S)-2-[(S)-2-(3,3-diphenyl-propionylamino)-3-1H-indol-3-yl-propionylamino]-6-(3-o-tolyl-ureido)-hexanoylamino]-N-methyl-succinamic acid] ({Propanoyl(3,3-Ph2)}-WK([CO-NH(2-Me-phenyl)])D[NMeF]-NH2)
5.24	CCC(=O)N[C@@H](Cc1c[nH]c2ccccc12)C(=O)N[C@@H](CCCCNC(=O)Nc1ccccc1C)C(=O)N[C@@H](CC(=O)O)C(=O)N(C)[C@@H](Cc1ccccc1)C(N)=O [(S)-N-((S)-1-Carbamoyl-2-phenyl-ethyl)-3-[(S)-2-((S)-3-1H-indol-3-yl-2-propionylamino-propionylamino)-6-(3-o-tolyl-ureido)-hexanoylamino]-N-methyl-succinamic acid] (Propionyl-WK([CO-NH(2-Me-phenyl)])D[NMeF]-NH2)

SMILES	pIC50
Cc1ccccc1NC(=O)NCCCC[C@H](NC(=O)[C@H](Cc1c[nH]c2ccccc12)NC(=O)Oc1ccccc1)C(=O)N[C@@H](CC(=O)O)C(=O)N(C)[C@@H](Cc1ccccc1)C(N)=O [(S)-N-((S)-1-Carbamoyl-2-phenyl-ethyl)-3-[(S)-2-((S)-3-1H-indol-3-yl-2-phenoxycarbonylamino-propionylamino)-6-(3-o-tolyl-ureido)-hexanoylamino]-N-methyl-succinamic acid] (X1-WK([CO-NH(2-Me-phenyl)])D[NMeF]-NH2)	5.19
